One block for each compound: values may come before it. The source made the active and inactive calls. The rule behind the calls is not given here.
Legend:
[1] = Antiproliferative activity against human LTL-331R-CL cells assessed as cell viability for 5 days by CTG assay; type: functional, cell-based; details: 120 h
PC-3 [2] = assay: Antiproliferative activity against human PC-3 cells assessed as cell viability for 5 days by CTG assay; type: functional, cell-based; details: PC-3, 120 h
HepG2 = assay: Antiproliferative activity against human HepG2 cells assessed as cell viability; type: functional
A549 = assay: Antiproliferative activity against human A549 cells assessed as cell viability; type: functional
Tribbles homolog 2 = molecular target: T1, Tribbles homolog 2 (Homo sapiens, UniProt Q92519); assay: Inhibition of TRIB2 (unknown origin) assessed as reduction in ATP binding affinity incubated for 120 mins in presence of Mg/ATP by radiometric kinase assay
T1 sequence (Q92519 whole entry): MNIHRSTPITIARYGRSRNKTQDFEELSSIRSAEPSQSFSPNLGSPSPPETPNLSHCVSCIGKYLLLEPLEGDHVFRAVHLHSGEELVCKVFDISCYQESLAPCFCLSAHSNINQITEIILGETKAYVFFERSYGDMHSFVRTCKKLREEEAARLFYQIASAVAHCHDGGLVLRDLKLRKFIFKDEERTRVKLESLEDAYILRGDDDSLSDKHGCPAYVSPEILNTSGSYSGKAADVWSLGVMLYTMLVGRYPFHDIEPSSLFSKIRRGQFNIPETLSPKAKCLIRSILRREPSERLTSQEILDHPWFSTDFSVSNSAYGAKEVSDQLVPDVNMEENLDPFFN

[3] = molecular target: T2, Tribbles homolog 2 (Homo sapiens) (UniProt Q92519); assay: Induction of thermal stabilization of TRIB2 in human PC-3 cells […] at 2 uM preincubated for 3 hrs followed by compound washout and incubated under 45 to 50 degreeC for 3 mins by CETSA based immunoblotting analysis; type: cell-based
T2 sequence (whole entry): T1 sequence (Q92519 whole entry)

[4] = molecular target: T3, Protein cereblon/Tribbles homolog 2 (Homo sapiens, UniProt Q96SW2+Q92519); assay: PROTAC activity at CRBN/TRIB2 in human PC-3 cells assessed as induction of TRIB2 degradation by measuring maximal efficacy at 100 nM measured after 24 hrs by immunoblot analysis relative to control; type: cell-based
Target sequence in this assay (Q96SW2 whole entry, looked up, one chain of several): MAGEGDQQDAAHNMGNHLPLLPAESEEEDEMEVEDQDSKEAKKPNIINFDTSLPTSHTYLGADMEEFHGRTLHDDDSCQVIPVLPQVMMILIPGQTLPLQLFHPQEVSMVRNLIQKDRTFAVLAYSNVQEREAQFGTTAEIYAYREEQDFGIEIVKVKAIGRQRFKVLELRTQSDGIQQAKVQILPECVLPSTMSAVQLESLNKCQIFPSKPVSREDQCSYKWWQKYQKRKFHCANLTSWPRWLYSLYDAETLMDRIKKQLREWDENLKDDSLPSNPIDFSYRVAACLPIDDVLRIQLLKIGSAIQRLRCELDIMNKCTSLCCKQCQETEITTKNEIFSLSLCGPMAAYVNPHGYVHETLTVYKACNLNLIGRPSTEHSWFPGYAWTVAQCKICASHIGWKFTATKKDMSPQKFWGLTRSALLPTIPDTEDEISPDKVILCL

[5] = molecular target: T3, Protein cereblon/Tribbles homolog 2; assay: PROTAC activity at CRBN/TRIB2 in human PC-3 cells assessed as induction of TRIB2 degradation by measuring maximal efficacy at 1 nM measured after 24 hrs by immunoblot analysis relative to control; type: cell-based
Target sequence in this assay (Q96SW2 whole entry, looked up, one chain of several): as above

[6] = molecular target: T3, Protein cereblon/Tribbles homolog 2; assay: PROTAC activity at CRBN/TRIB2 in human NCI-H660 cells assessed as induction of TRIB2 degradation at 1 uM by immunoblotting analysis; type: cell-based
Target sequence in this assay (Q96SW2 whole entry, looked up, one chain of several): as above

[7] = molecular target: T3, Protein cereblon/Tribbles homolog 2; assay: PROTAC activity at CRBN/TRIB2 in human LTL-331R-CL cells assessed as induction of TRIB2 degradation at 1 uM by immunoblotting analysis; type: cell-based
Target sequence in this assay (Q96SW2 whole entry, looked up, one chain of several): as above

[8] = molecular target: T3, Protein cereblon/Tribbles homolog 2; assay: PROTAC activity at CNRB/TRIB2 in human LTL-331R-CL cells assessed as induction of TRIB2 degradation at 1 uM for 4 hrs by immunoblotting assay; type: cell-based
Target sequence in this assay (Q96SW2 whole entry, looked up, one chain of several): as above

[9] = molecular target: T3, Protein cereblon/Tribbles homolog 2; assay: PROTAC activity at CNRB/TRIB2 in human PC-3 cells assessed as induction of TRIB2 degradation at 0.5 uM pretreated with pomalidomide followed by compound addition and measured after 16 hrs by immunoblotting assay; type: cell-based
Target sequence in this assay (Q96SW2 whole entry, looked up, one chain of several): as above

[10] = molecular target: T3, Protein cereblon/Tribbles homolog 2; assay: PROTAC activity at CRBN/TRIB2 in human PC-3 cells assessed as induction of TRIB2 degradation for 24 hrs by immunoblot analysis; type: cell-based
LTL-331R-CL = assay: Antiproliferative activity against human LTL-331R-CL cells assessed as cell viability at 1 uM by CTG assay; type: functional, cell-based
[11] = molecular target: T4, von Hippel-Lindau disease tumor suppressor/Tribbles homolog 2 (Homo sapiens) (UniProt P40337+Q92519); assay: PROTAC activity at VHL/TRIB2 in human PC-3 cells assessed as induction of TRIB2 degradation at 100 nM for 24 hrs by immunoblotting analysis; type: cell-based
T4 sequence (P40337 whole entry, looked up, one chain of several): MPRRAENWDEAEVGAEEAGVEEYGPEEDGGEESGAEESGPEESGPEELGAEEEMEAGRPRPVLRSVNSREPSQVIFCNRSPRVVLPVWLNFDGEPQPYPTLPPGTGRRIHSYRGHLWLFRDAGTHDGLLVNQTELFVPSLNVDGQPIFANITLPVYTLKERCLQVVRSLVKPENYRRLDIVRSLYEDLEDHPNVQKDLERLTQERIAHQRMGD

[12] = molecular target: T3, Protein cereblon/Tribbles homolog 2; assay: PROTAC activity at CRBN/TRIB2 in human PC-3 cells assessed as half maximal degradation by measuring half life at 500 nM by immunoblotting analysis; type: cell-based
[13] = molecular target: T4, von Hippel-Lindau disease tumor suppressor/Tribbles homolog 2 (Homo sapiens); assay: PROTAC activity at VHL/TRIB2 in human PC-3 cells assessed as induction of TRIB2 downregulation at 1000 nM for 24 hrs by immunoblotting analysis; type: cell-based
[14] = molecular target: T3, Protein cereblon/Tribbles homolog 2; assay: PROTAC activity at CNRB/TRIB2 in human LTL-331R-CL cells assessed as induction of TRIB2 degradation at 1 uM for 4 hrs by comprehensive proteomic analysis using a tandem mass tag (TMT) labeled mass spectrometry; type: cell-based
PC-3 [15] = assay: Antiproliferative activity against human PC-3 cells assessed as cell viability at 1 uM by CTG assay; type: functional, cell-based
[16] = molecular target: T3, Protein cereblon/Tribbles homolog 2; assay: PROTAC activity at CRBN/TRIB2 in human PC-3 cells assessed as induction of TRIB2 degradation at 500 nM in presence of 1 uM bortezomib proteasome inhibitor pretreatment for 16 hrs by Western blot analysis; type: cell-based

SMILES: Nc1cccc2c1C(=O)N(C1CCC(=O)NC1=O)C2=O (stereo unspecified) [POMALIDOMIDE]
- IC50 [1]: > 30000 nM
- IC50 (PC-3 [2]): > 5000 nM

SMILES: O=C1CCC(N2C(=O)c3ccc(NCCCCCCCC(=O)N4CCc5ccc(NC(=O)c6n[nH]c7ccc(-c8cccnc8F)cc67)cc5C4)cc3C2=O)C(=O)N1 (stereo unspecified)
- Emax [4]: 58.2%

SMILES: O=C1CCC(N2C(=O)c3ccc(NCCCCCC(=O)N4CCc5ccc(NC(=O)c6n[nH]c7ccc(-c8cccnc8F)cc67)cc5C4)cc3C2=O)C(=O)N1 (stereo unspecified)
- Emax [5]: 24.5%
- Emax [4]: 85.6%

SMILES: CN1C(=O)CCC(N2C(=O)c3ccc(NCCCCCCCCCC(=O)N4CCc5ccc(NC(=O)c6n[nH]c7ccc(-c8cccnc8F)cc67)cc5C4)cc3C2=O)C1=O (stereo unspecified)
- IC50 [1]: > 30000 nM
- IC50 (PC-3 [2]): > 5000 nM

SMILES: O=C1CCC(N2C(=O)c3ccc(NCCCCCCCCCC(=O)N4CCc5ccc(NC(=O)c6n[nH]c7ccc(-c8cccnc8F)cc67)cc5C4)cc3C2=O)C(=O)N1 (stereo unspecified)
- Activity [6]: Time-dependent-effect
- Activity [7]: Active
- Activity [8]: Active
- Activity [9]: inactive
- Activity [10]: Dose-dependent-effect
- DC50 [10]: 16.8 nM
- Emax [4]: 92%
- Activity (LTL-331R-CL): Active
- Activity [11]: 100%
- T1/2 [12]: > 5.5 h
- IC50 [1]: 30.4 nM
- Activity [13]: Active; Mild Trib2 Degradation Observed
- IC50 (PC-3 [2]): 3.9 nM
- Activity [14]: Active
- Activity (PC-3 [15]): Active
- Activity [16]: inactive
- Activity [3]: Active

Further lines, with some results ahead:

- IC50 (Tribbles homolog 2): 65.2 nM
- IC50 (PC-3 [2]): 802 nM
- Activity [3]: Active
SMILES: O=C(Nc1ccc2c(c1)CNCC2)c1n[nH]c2ccc(-c3cccnc3F)cc12
- Activity (HepG2): 10%
- Activity (A549): 12%
- IC50 [1]: 868 nM

- Emax [4]: 84.1%
SMILES: O=C1CCC(N2C(=O)c3ccc(NCCCC(=O)N4CCc5ccc(NC(=O)c6n[nH]c7ccc(-c8cccnc8F)cc67)cc5C4)cc3C2=O)C(=O)N1 (stereo unspecified)

From ChEMBL document CHEMBL6096639, “Discovery of the first selective and potent PROTAC degrader for the pseudokinase TRIB2” (Eur J Med Chem, 2025)
